Measurements as given in patent EP0121972A2, “N-aryl-alpha-amino-carboxamides” (JANSSEN PHARMACEUTICA N.V., priority 1983, dated 1984).

Test system: multifocal ventricular arrhythmia
Assay: Antiarrhythmic effect in dogs with ventricular arrhythmia after coronary artery ligation
Assay type: in vivo
Details: given intravenously; for minimal effective dose: Canis lupus familiaris, iv, lowest effective dose normalizing the cardial rhythm, about 16 hours after ligation of the anterior descendent branch of the left coronary artery, under neuroleptanalgesia, read-out: Antiarrhythmic effects in dogs LED in mg/kg body weight; for Antiarrhythmic effects in dogs duration: duration of action at the lowest effective dose, coronary-ligated dogs
Protocol: The compounds of formula (I) and their pharmaceutically acceptable acid addition salts and possible stereochemically isomeric forms thereof show excellent antiarrhythmic properties and as such they are useful in the normalization of irregular cardial rhythms. The antiarrhythmic effect of the compounds of this invention is clearly illustrated in the following experiment in dogs. The test was carried out under neuroleptanalgesia (1 ml per 10 kg body weight of fentanyl (0.4 mg/ml) and droperidol (20 mg/ml)).
The test compounds were given intravenously after a control period of 30 minutes.

| SMILES | minimal effective dose | Antiarrhythmic effects in dogs duration |
| --- | --- | --- |
| CCCCN1CCC(C(=O)Nc2c(C)cccc2C)(N(C)C)CC1 [compound 137] | 0.16 mg/kg | 145 min |
| CCN(CC)C1(C(=O)Nc2c(C)cccc2C)CCN(C(C)COC)CC1 (centres unmarked) [compound 140] | 0.31 mg/kg | 220 min |
| Cc1cccc(C)c1NC(=O)C1(N(C)C)CCN(C2CCCC2)CC1 [compound 130, l-cyclopentyl-4-(dimethylamino)-N-(2,6-dimethylphenyl)-4-piperidinecarboxamide] | 0.16 mg/kg | 65 min |
| CCN(CC)C1(C(=O)Nc2c(C)cccc2C)CCN(C2CCCCC2)CC1 [compound 141] | 0.16 mg/kg | 40 min |
| CCN(CC)CCN1CCC(C(=O)Nc2c(C)cccc2C)(N(C)C)CC1 [compound 163, 1-[2-(diethylamino)ethyl]-4-(dimethylamino)-N-(2,6-dimethylphenyl)-4-piperidinecarboxamide] | 0.31 mg/kg | 220 min |
| Cc1cccc(C)c1NC(=O)C1(N(C)C)CCN(C(C)C)CC1 [compound 132] | 0.16 mg/kg | 140 min |
| Cc1cccc(C)c1NC(=O)C1(N(C)C)CCN([C@H]2CC[C@@H](O)C[C@@H]2O)CC1 [compound 202, (+)-[1-(1α,2β,4α)]-1-(2,4-dihydroxycyclohexyl)-4-(dimethylamino)-N-(2,6-dimethylphenyl)-4-piperidinecarboxamide] | 0.31 mg/kg | 5 min |
| CCN(C)C1(C(=O)Nc2c(C)cccc2C)CCN(C(C)C(N)=O)CC1 (centres unmarked) [compound 174] | 1.25 mg/kg | 120 min |
| Cc1cccc(C)c1NC(=O)C1(N(C)C)CCN(CC2CC2)CC1 [compound 135] | 0.16 mg/kg | 190 min |
| Cc1cccc(C)c1NC(=O)C1(N)CCN(C2CCCC2)CC1 [compound 190, 4-amino-l-cyclopentyl-N-(2,6-dimethylphenyl)-4-piperidinecarboxamide] | 1.25 mg/kg | 110 min |
| Cc1cccc(C)c1NC(=O)C1(N(C)C)CCN(CCO)CC1 [compound 167, 4-(dimethylamino)-N-(2,6-dimethylphenyl)-1-(2-hydroxyethyl)-4-piperidinecarboxamide] | 0.31 mg/kg | 220 min |
| CCN(CC)CCCC(C)N1CCC(C(=O)Nc2c(C)cccc2C)(N(C)C)CC1 (centres unmarked) [compound 146] | 1.25 mg/kg | 45 min |
| CCN(CC)C1(C(=O)Nc2c(C)cccc2C)CCN(C(C)C)CC1 [compound 53, 4-(diethylamino)-N-(2,6-dimethylphenyl)-1-(1-methylethyl)-4-piperidinecarboxamide] | 0.63 mg/kg | 140 min |
| CCN(CC)C1(C(=O)Nc2c(C)cccc2C)CCN([C@@H]2CCC[C@H]2O)CC1 (relative stereo) [compound 92] | 0.31 mg/kg | 205 min |
| CCN(CC)C1(C(=O)Nc2cc(Cl)ccc2C)CCN(C(C)C)CC1 [compound 143] | 0.31 mg/kg | 95 min |
| CCN(C)C1(C(=O)Nc2c(C)cccc2C)CCN(C(C)C)CC1 [compound 138] | 1.25 mg/kg | 100 min |
| CO[C@@H]1CCCC[C@H]1N1CCC(C(=O)Nc2c(C)cccc2C)(N(C)C)CC1 (relative stereo) [compound 18, trans-4-(dimethylamino)-N-(2,6-dimethylphenyl)-l-(2-methoxycyclo-hexyl)-4-piperidinecarboxamide] | 0.08 mg/kg | 150 min |
| CCOC(=O)N1CCC(N2CCC(C(=O)Nc3c(C)cccc3C)(N(C)C)CC2)C(OC)C1 (centres unmarked) [compound 144] | 0.16 mg/kg | 40 min |
| Cc1cccc(C)c1NC(=O)C1(N(C)C)CCN(CC(O)CN)CC1 (centres unmarked) [compound 191, 1-(3-amino-2-hydroxypropyl)-4-(dimethylamino)-N-(2,6-dimethylphenyl)-4-piperidinecarboxamide] | 1.25 mg/kg | 20 min |
| Cc1cccc(C)c1NC(=O)C1(N(C)C)CCN([C@@H]2CCC[C@H]2NCc2ccccc2)CC1 (relative stereo) [compound 129, trans-4-(dimethylamino)-N-(2,6-dimethylphenyl)-l-[2-[(phenylmethyl)amino]cyclopentyl]-4-piperidinecarboxamide] | 0.08 mg/kg |  |
| Cc1cccc(C)c1NC(=O)C1(N(C)C)CCN([C@H]2CCCC[C@@H]2NC(N)=O)CC1 (relative stereo) [compound 224, trans-1-[2-[(aminocarbonyl)-amino]cyclohexyl]-4-(dimethyJamino)-N-(2,6-dimethylphenyl)-4-piperidinecarboxamide] | 0.04 mg/kg | 130 min |
| CCN1CCC(O)C(N2CCC(C(=O)Nc3c(C)cccc3C)(N(C)C)CC2)C1 (centres unmarked) [compound 212] | 0.31 mg/kg | 60 min |
| C=CCN1CCC(C(=O)Nc2c(C)cccc2C)(N(C)C)CC1 [compound 162, 4-(dimethylamino)-N-(2,6-dimethylphenyl)-l-(2-propenyl)-4-piperidinecarboxamide] | 0.31 mg/kg | 25 min |
| Cc1cc(N(C)C)cc(C)c1NC(=O)C1(N(C)C)CCN([C@@H]2CCCC[C@H]2O)CC1 (relative stereo) [compound 125] | 0.08 mg/kg | 165 min |
| Cc1cccc(C)c1NC(=O)C1(N(C)C)CCN(CC(O)CN(Cc2ccccc2)Cc2ccccc2)CC1 (centres unmarked) [compound 96, 1-[3-[bis(phenylmethyl)amino]-2-hydroxypropyl]-4-(dimethylamino)-N-(2,6-dimethylphenyl)-4-piperidinecarboxamide] | 0.31 mg/kg | 40 min |
| Cc1cccc(C)c1NC(=O)C1(N(C)C)CCN(CC(O)CO)CC1 (centres unmarked) [compound 97] | 0.31 mg/kg | 60 min |
| Cc1cccc(C)c1NC(=O)C1(N(C)C)CCN(C2CCNCC2)CC1 [compound 86, 4-(dimethylamino)-N-(2,6-dimethylphenyl)-[1,4'-bipiperidine]-4-carboxamide] | 0.16 mg/kg | 185 min |
| CCN(CC)C1(C(=O)Nc2c(C)cccc2C)CCN([C@@H]2CCCC[C@H]2O)CC1 (relative stereo) [compound 93] | 0.63 mg/kg | 30 min |
| Cc1cccc(C)c1NC(=O)C1(N(C)C)CCN([C@@H]2CCC[C@H]2O)CC1 (relative stereo) [compound 91] | 0.08 mg/kg | 220 min |
| CCNC1(C(=O)Nc2c(C)cccc2C)CCN(C(C)C)CC1 [compound 189, N-(2,6-dimethylphenyl)-4-(ethylamino)-l-(l-methylethyl)-4-piperidinecarboxamide] | 0.63 mg/kg | 175 min |
